Measured values taken from patent US8236935B2, “Gem-difluorinated C-glycoside compounds derived from podophyllotoxin, their preparation and their applications” (Institut National des Sciences Appliquees de Rouen (INSA), priority 2006, dated 2012).
Several values for one entry are separate records, joined by “and”; a condition that tells them apart may be missing. Equal entries are not always repeated.

Columns and labels:
Type in all cases: cell-based
MCF7 cells = experiment: cytotoxicity test, inhibition of cellular growth, MCF7 cells; conditions: 10^−5M, triplicate
Protocol: (§1) The first cytotoxicity tests were conducted on different cell lines such as KB, PC3, MCF7 and MCF7R, SF268, HL60, HT29, A549 cells at concentrations of 10^−5M in triplicate. Podophyllotoxin 1 and etoposide 2 were also tested under the same conditions as standards.
(§2) The results are expressed as an inhibition percentage of cellular growth.

KB cells [1] = experiment: cytotoxicity test, inhibition of cellular growth, KB cells; conditions: 10^−5M; for inhibition percentage of cellular growth / inhibition at 10 µM: triplicate; for inhibition at 10 µM: Homo sapiens, read-out: inhibition percentage of cellular growth
Protocol: as §1, §2

PC3 cells = experiment: cytotoxicity test, inhibition of cellular growth, PC3 cells; conditions: triplicate; for inhibition percentage of cellular growth: 10^−5M
Protocol: as §1, §2

HL60 cells = experiment: cytotoxicity test, inhibition of cellular growth, HL60 cells; conditions: triplicate; for inhibition percentage of cellular growth: 10^−5M
Protocol: as §1, §2

HT29 cells = experiment: cytotoxicity test, inhibition of cellular growth, HT29 cells; conditions: triplicate; for inhibition percentage of cellular growth: 10^−5M
Protocol: as §1, §2

SF268 cells = experiment: cytotoxicity test, inhibition of cellular growth, SF268 cells; conditions: triplicate; for inhibition percentage of cellular growth: 10^−5M
Protocol: as §1, §2

A549 cells = experiment: cytotoxicity test, inhibition of cellular growth, A549 cells; conditions: 10^−5M, triplicate
Protocol: as §1, §2

MCF7R cells = experiment: cytotoxicity test, inhibition of cellular growth, MCF7R cells; conditions: 10^−5M, triplicate
Protocol: as §1, §2

KB cells [2] = experiment: IC50 of cytotoxicity on KB cells; conditions: in duplicate (two values per cell, separated by /)
Text: The IC50 values are expressed in μM on KB cells in duplicate and were obtained for the […] leading compounds, i.e. 27a, 32a, 44a, 37a and 46a in parallel with podophyllotoxin and etoposide.

[3] = system: KB, PC3, MCF7 and MCF7R, SF268, HL60, HT29, A549 cells; experiment: cytotoxicity tests on the panel of cell lines, overall comparison with standards; conditions: 10^−5M
Protocol: as §1, §2

[4] = Homo sapiens, read-out: inhibition percentage of cellular growth

Row | Compound | inhibition percentage of cellular growth (MCF7 cells) | inhibition percentage of cellular growth (KB cells [1]) | inhibition percentage of cellular growth (PC3 cells) | inhibition percentage of cellular growth (HL60 cells) | inhibition percentage of cellular growth (HT29 cells) | inhibition percentage of cellular growth (SF268 cells) | inhibition percentage of cellular growth (A549 cells) | inhibition percentage of cellular growth (MCF7R cells) | inhibition at 10 µM (KB cells [1]) | IC50 (KB cells [2]) | cytotoxicity compared with etoposide and podophyllotoxin (in words) (KB cells [1]) | other results
1 | COc1cc(C2c3cc4c(cc3C(NC(=O)C(F)(F)C3(O)OC5COC(C)OC5C(O)C3O)C3COC(=O)C23)OCO4)cc(OC)c1OC (stereo not shown) [29a] | 40% | 66% | 8% | 17% | 17% | 11% | 6% | 44% |  |  |  | 
2 | COc1cc(C2c3cc4c(cc3C(NC(=O)C(F)(F)C3(O)OC5COC(C)OC5C(O)C3O)C3COC(=O)C23)OCO4)cc(OC)c1OC (stereo not shown) [29b] | 7% | 0% | 3% | 0% | 6% | 6% | 1% | 7% |  |  |  | 
3 | COc1cc([C@@H]2c3cc4c(cc3[C@@H](O[C@@H]3O[C@@H]5CO[C@@H](C)O[C@H]5[C@H](O)[C@H]3O)[C@H]3COC(=O)[C@H]23)OCO4)cc(OC)c1O [Etoposide, etoposide, reference compound] | 57% | 84% | 47% | 75% | 79% | 82% | 65% | 22% |  |  |  | 
4 | COc1cc([C@@H]2c3cc4c(cc3[C@H](O)[C@H]3COC(=O)[C@H]23)OCO4)cc(OC)c1OC [Podophyllotoxin 1, Podophyllotoxin] |  |  |  |  |  |  |  |  | 90% | 22 nM |  | inhibition at 10 µM (MCF7 cells; [4]): 55%; inhibition at 10 µM (PC3 cells; Homo sapiens, PC-3, 10^−5M, read-out: inhibition percentage of cellular growth): 65%; IC50 (KB cells [2]; Homo sapiens, KB): 15 nM; inhibition at 10 µM (HL60 cells; Homo sapiens, HL-60, 10^−5M, read-out: inhibition percentage of cellular growth): 74%; inhibition at 10 µM (HT29 cells; Homo sapiens, HT-29, 10^−5M, read-out: inhibition percentage of cellular growth): 84%; inhibition at 10 µM (SF268 cells; Homo sapiens, SF-268, 10^−5M, read-out: inhibition percentage of cellular growth): 74%; inhibition at 10 µM (A549 cells; [4]): 83%; inhibition at 10 µM (MCF7R cells; [4]): 55%
5 | COc1cc([C@@H]2c3cc4c(cc3[C@@H](NC(=O)C(F)(F)[C@]3(O)O[C@H](CO)[C@@H](O)[C@H](O)[C@H]3O)[C@H]3COC(=O)[C@H]23)OCO4)cc(OC)c1O [compound 26a] | 37% | 43% | 10% | 17% | 10% | 7% | 23% | 35% |  |  |  | 
6 | COc1cc([C@@H]2c3cc4c(cc3[C@@H](NC(=O)C(F)(F)[C@]3(O)O[C@H](CO)[C@H](O)[C@H](O)[C@H]3O)[C@H]3COC(=O)[C@H]23)OCO4)cc(OC)c1O [compound 26b] | 20% | 12% | 8% | 19% | 13% | 7% | 7% | 16% |  |  |  | 
7 | COc1cc(C2c3cc4c(cc3C(NC(=O)C(F)(F)C3(O)OC(CO)C(O)C(O)C3O)C3COC(=O)C23)OCO4)cc(OC)c1OC (stereo not shown) [compound 27a] | 53% | 91% | 63% | 79% | 87% | 65% | 78% | 70% |  | 3450 nM and 2550 nM |  | activity compared with etoposide and podophyllotoxin (in words) [3]: activity comparable with that of etoposide and of podophyllotoxin, and even better on certain cell lines
8 | COc1cc(C2c3cc4c(cc3C(NC(=O)C(F)(F)C3(O)OC(CO)C(O)C(O)C3O)C3COC(=O)C23)OCO4)cc(OC)c1OC (stereo not shown) [compound 27b] | 20% | 12% | 8% | 19% | 8% | 7% | 6% | 10% |  |  |  | 
9 | COc1cc([C@@H]2c3cc4c(cc3[C@@H](N(C)C(=O)C(F)(F)[C@]3(O)O[C@H](COCc5ccccc5)[C@@H](OCc5ccccc5)[C@H](OCc5ccccc5)[C@H]3OCc3ccccc3)C3COC(=O)[C@@H]32)OCO4)cc(OC)c1OC (stereo partly shown) [compound 31a] |  |  |  |  |  |  |  |  | 22% |  |  | 
10 | COc1cc(C2c3cc4c(cc3C(NCC(F)(F)C3(O)OC(CO)C(O)C(O)C3O)C3COC(=O)C23)OCO4)cc(OC)c1OC (stereo not shown) [compound 32a] |  | 94% |  |  |  |  |  |  |  |  | cytotoxicity close to that of etoposide and podophyllotoxin | 
11 | COc1cc([C@@H]2c3cc4c(cc3[C@@H](NC(=O)C(F)(F)C3(Cl)O[C@H](CO)[C@@H](O)[C@H](O)[C@H]3O)C3COC(=O)[C@@H]32)OCO4)cc(OC)c1OC (stereo partly shown) [compound 37a] |  |  |  |  |  |  |  |  | 91% | 306 nM | cytotoxicity close to that of etoposide and podophyllotoxin | IC50 (KB cells [2]; Homo sapiens, KB): 273 nM
12 | COc1cc([C@@H]2c3cc4c(cc3[C@@H](NC(=O)C(F)(F)[C@@H]3O[C@H](CO)[C@@H](O)[C@H](O)[C@H]3O)C3COC(=O)[C@@H]32)OCO4)cc(OC)c1OC (stereo partly shown) [compound 44a] |  |  |  |  |  |  |  |  | 90% | 341 nM | cytotoxicity close to that of etoposide and podophyllotoxin | IC50 (KB cells [2]; Homo sapiens, KB): 323 nM
13 | COc1cc(C2c3cc4c(cc3C(NCC(F)(F)C3(O)OC5COC(C)OC5C(O)C3O)C3COC(=O)C23)OCO4)cc(OC)c1OC (stereo not shown) [compound 46a] |  | 86% |  |  |  |  |  |  |  | 4710 nM and 6030 nM | cytotoxicity close to that of etoposide and podophyllotoxin | 
